Data taken from US20240083857A1, “2-Methyl-Quinazolines” (Bayer Pharma Aktiengesellschaft, priority 2017, published 2024).
pIC50: −log10 of the molar value. Counter-ions that a name gives are not always drawn.

Key:
[1] = biological target: human SOS1 (nucleotide exchange of K-Ras^G12C) (Homo sapiens, UniProt Q07889); assay: Biochemical assay 2: K-Ras^G12C activation assay by hSOS1 at high GTP concentration (HTRF); conditions: high GTP; read-out: Assay 2 (KRAS-Activation by SOS high GTP) activity expressed as IC50
[2] = biological target: K-Ras^G12C : hSOS1 interaction (Homo sapiens, UniProt Q07889); assay: Biochemical assay 1: K-Ras^G12C interaction assay with hSOS1 (HTRF); assay type: binding; conditions: read-out: Assay 1 (KRAS-SOS Interaction) activity expressed as IC50

Compound	pIC50 [1]	pIC50 [2]
COc1cc2nc(C)nc(NC(C)c3ccc(-c4cc(C)n(C)c4C#N)s3)c2cc1OC (stereo not drawn) [Example 286, 3-(5-{1-[(6,7-dimethoxy-2-methylquinazolin-4-yl)amino]ethyl}thiophen-2-yl)-1,5-dimethyl-1H-pyrrole-2-carbonitrile]	4.76	4.78
COc1cc2nc(C)nc(NC(C)c3ccc(-c4cscc4C#N)s3)c2cc1OC (stereo not drawn) [Example 287, 5-{1-[(6,7-dimethoxy-2-methylquinazolin-4-yl)amino]ethyl}-2,3′-bithiophene-4′-carbonitrile]	5.73	5.23
CCN(CC)Cc1ccccc1-c1ccc(C(C)Nc2nc(C)nc3cc(OC)c(OC)cc23)s1 (stereo not drawn) [Example 288, N-[1-(5-{2-[(diethylamino)methyl]phenyl}thiophen-2-yl)ethyl]-6,7-dimethoxy-2-methylquinazolin-4-amine]	6.85	6.77
COc1cc2nc(C)nc(NC(C)c3ccc(-c4ccccc4CN4CCCC(C(N)=O)C4)s3)c2cc1OC (stereo not drawn) [Example 290, 1-[2-(5-{1-[(6,7-dimethoxy-2-methylquinazolin-4-yl)amino]ethyl}thiophen-2-yl)benzyl]piperidine-3-carboxamide]	6.94	6.75
COc1cc2nc(C)nc(NC(C)c3ccc(-c4ccccc4CN(C)CC(F)F)s3)c2cc1OC (stereo not drawn) [Example 291, N-{1-[5-(2-{[(2,2-difluoroethyl)(methyl)amino]methyl}phenyl)thiophen-2-yl]ethyl}-6,7-dimethoxy-2-methylquinazolin-4-amine]	5.88	5.95
COc1cc2nc(C)nc(NC(C)c3ccc(-c4cc(Cl)ccc4CN)s3)c2cc1OC (stereo not drawn) [Example 292, N-[1-{5-[2-(aminomethyl)-5-chlorophenyl]thiophen-2-yl}ethyl]-6,7-dimethoxy-2-methylquinazolin-4-amine]	7.41	7.50
COc1cc2nc(C)nc(NC(C)c3ccc(-c4ccc(F)cc4CNC(=O)c4ncc[nH]4)s3)c2cc1OC (stereo not drawn) [Example 293, N-[2-(5-{1-[(6,7-dimethoxy-2-methylquinazolin-4-yl)amino]ethyl}thiophen-2-yl)-5-fluorobenzyl]-1H-imidazole-2-carboxamide]	5.41	5.56
COc1cc2nc(C)nc(NC(C)c3ccc(-c4ccc(F)cc4CNC(=O)c4cnc[nH]4)s3)c2cc1OC (stereo not drawn) [Example 294, N-[2-(5-{1-[(6,7-dimethoxy-2-methylquinazolin-4-yl)amino]ethyl}thiophen-2-yl)-5-fluorobenzyl]-1H-imidazole-5-carboxamide]	5.41	5.51
COc1cc2nc(C)nc(NC(C)c3ccc(-c4ccc(F)cc4CNC(=O)CNCC(F)(F)F)s3)c2cc1OC (stereo not drawn) [Example 295, N-[2-(5-{1-[(6,7-dimethoxy-2-methylquinazolin-4-yl)amino]ethyl}thiophen-2-yl)-5-fluorobenzyl]-N^2-(2,2,2-trifluoroethyl)glycinamide]	5.83	6.01
COc1cc2nc(C)nc(NC(C)c3ccc(-c4ccccc4CNCCO)s3)c2cc1OC (stereo not drawn) [Example 297, 2-{[2-(5-{1-[(6,7-dimethoxy-2-methylquinazolin-4-yl)amino]ethyl}thiophen-2-yl)benzyl]amino}ethanol]	7.24	7.34
COc1cc2nc(C)nc(NC(C)c3ccc(-c4ccccc4CN(C)CCO)s3)c2cc1OC (stereo not drawn) [Example 298, 2-{[2-(5-{1-[(6,7-dimethoxy-2-methylquinazolin-4-yl)amino]ethyl}thiophen-2-yl)benzyl](methyl)amino}ethanol]	7.31	7.33
COc1cc2nc(C)nc(NC(C)c3ccc(-c4ccc(F)cc4CNC(=O)CNc4ccccc4)s3)c2cc1OC (stereo not drawn) [Example 299, N-[2-(5-{1-[(6,7-dimethoxy-2-methylquinazolin-4-yl)amino]ethyl}thiophen-2-yl)-5-fluorobenzyl]-N^2-phenylglycinamide]	5.91	6.02
COc1cc2nc(C)nc(NC(C)c3ccc(-c4ccccc4CNCC(F)(F)F)s3)c2cc1OC (stereo not drawn) [Example 300, 6,7-di methoxy-2-methyl-N-{1-[5-(2-{[(2,2,2-trifluoroethyl)amino]methyl}phenyl)thiophen-2-yl]ethyl}quinazolin-4-amine]	5.51	5.50
COc1cc2nc(C)nc(NC(C)c3ccc(-c4ccccc4CNc4ccccn4)s3)c2cc1OC (stereo not drawn) [Example 301, 6,7-di methoxy-2-methyl-N-[1-(5-{2-[(pyridin-2-ylamino)methyl]phenyl}thiophen-2-yl)ethyl]quinazolin-4-amine]	6.03	6.10
COc1cc2nc(C)nc(NC(C)c3ccc(-c4ccccc4CNc4cc[nH]n4)s3)c2cc1OC (stereo not drawn) [Example 302, 6,7-dimethoxy-2-methyl-N-[1-(5-{2-[(1H-pyrazol-3-ylamino)methyl]phenyl}thiophen-2-yl)ethyl]quinazolin-4-amine]	5.90	6.10
COc1cc2nc(C)nc(NC(C)c3ccc(-c4ccccc4CNCC(=O)N4CCc5ccccc5C4)s3)c2cc1OC (stereo not drawn) [Example 303, 1-(3,4-dihydroisoquinolin-2(1H)-yl)-2-{[2-(5-{1-[(6,7-dimethoxy-2-methylquinazolin-4-yl)amino]ethyl}thiophen-2-yl)benzyl]amino}ethanone]	6.08	6.14
COc1cc2nc(C)nc(NC(C)c3ccc(-c4ccc(F)cc4CNCc4nccn4C)s3)c2cc1OC (stereo not drawn) [Example 304, N-[1-{5-[4-fluoro-2-({[(1-methyl-1H-imidazol-2-yl)methyl]amino}methyl)phenyl]thiophen-2-yl}ethyl]-6,7-dimethoxy-2-methylquinazolin-4-amine]	6.33	6.38
COc1cc2nc(C)nc(NC(C)c3ccc(-c4ccccc4CN4CCNCC4)s3)c2cc1OC (stereo not drawn) [Example 305, 6,7-dimethoxy-2-methyl-N-[1-{5-[2-(piperazin-1-ylmethyl)phenyl]thiophen-2-yl}ethyl]quinazolin-4-amine hydrochloride]	7.26	7.21
COc1cc2nc(C)nc(NC(C)c3ccc(-c4ccc(F)cc4CNC(C)=O)s3)c2cc1OC (stereo not drawn) [Example 307, N-[2-(5-{1-[(6,7-dimethoxy-2-methylquinazolin-4-yl)amino]ethyl}thiophen-2-yl)-5-fluorobenzyl]acetamide]	6.23	6.23
COc1cc2nc(C)nc(NC(C)c3ccc(-c4ccccc4CN4CCN(C)CC4)s3)c2cc1OC (stereo not drawn) [Example 308, 6,7-dimethoxy-2-methyl-N-[1-(5-{2-[(4-methylpiperazin-1-yl)methyl]phenyl}thiophen-2-yl)ethyl]quinazolin-4-amine]	6.64	6.59
COc1cc2nc(C)nc(NC(C)c3ccc(-c4ccccc4CN[C@H]4CCN(C)C4=O)s3)c2cc1OC (stereo partly drawn) [Example 309, (3S)-{[2-(5-{1-[(6,7-dimethoxy-2-methylquinazolin-4-yl)amino]ethyl}thiophen-2-yl)benzyl]amino}-1-methylpyrrolidin-2-one]	6.16	5.88
COc1cc2nc(C)nc(NC(C)c3ccc(-c4ccc(F)cc4CNC(=O)c4cc[nH]n4)s3)c2cc1OC (stereo not drawn) [Example 310, N-[2-(5-{1-[(6,7-dimethoxy-2-methylquinazolin-4-yl)amino]ethyl}thiophen-2-yl)-5-fluorobenzyl]-1H-pyrazole-3-carboxamide]	5.87	5.24
COc1cc2nc(C)nc(NC(C)c3ccc(-c4ccccc4CN4CCOCC4)s3)c2cc1OC (stereo not drawn) [Example 311, 6,7-dimethoxy-2-methyl-N-[1-{5-[2-(morpholin-4-ylmethyl)phenyl]thiophen-2-yl}ethyl]quinazolin-4-amine]	6.29	6.12
COc1cc2nc(C)nc(NC(C)c3ccc(-c4ccccc4CN4CC(O)C4)s3)c2cc1OC (stereo not drawn) [Example 312, 1-[2-(5-{1-[(6,7-dimethoxy-2-methylquinazolin-4-yl)amino]ethyl}thiophen-2-yl)benzyl]azetidin-3-ol]	7.18	7.17
COc1cc2nc(C)nc(NC(C)c3ccc(-c4ccccc4CN4CC5(CNC(=O)N5)C4)s3)c2cc1OC (stereo not drawn) [Example 313, 2-[2-(5-{1-[(6,7-dimethoxy-2-methylquinazolin-4-yl)amino]ethyl}thiophen-2-yl)benzyl]-2,5,7-triazaspiro[3.4]octan-6-one]	6.79	6.78
COc1cc2nc(C)nc(NC(C)c3ccc(-c4ccc(F)cc4CNC(=O)[C@@H]4CCCN4)s3)c2cc1OC (stereo partly drawn) [Example 314, N-[2-(5-{1-[(6,7-dimethoxy-2-methylquinazolin-4-yl)amino]ethyl}thiophen-2-yl)-5-fluorobenzyl]-L-prolinamide]	7.06	6.98
COc1cc2nc(C)nc(NC(C)c3ccc(-c4ccccc4CNCC(F)F)s3)c2cc1OC (stereo not drawn) [Example 315, N-{1-[5-(2-{[(2,2-difluoroethyl)amino]methyl}phenyl)thiophen-2-yl]ethyl}-6,7-dimethoxy-2-methylquinazolin-4-amine]	6.01	6.11
COc1cc2nc(C)nc(NC(C)c3ccc(-c4ccccc4CN4CCC4)s3)c2cc1OC (stereo not drawn) [Example 317, N-[1-{5-[2-(azetidin-1-ylmethyl)phenyl]thiophen-2-yl}ethyl]-6,7-dimethoxy-2-methylquinazolin-4-amine]	7.20	7.12
COc1cc2nc(C)nc(NC(C)c3ccc(-c4ccccc4CN4CC[C@H]4CO)s3)c2cc1OC (stereo partly drawn) [Example 318, {1-[(2S)-(5-{1-[(6,7-dimethoxy-2-methylquinazolin-4-yl)amino]ethyl}thiophen-2-yl)benzyl]azetidin-2-yl}methanol]	6.78	6.77
COc1cc2nc(C)nc(NC(C)c3ccc(-c4ccccc4CN4CC(N(C)C)C4)s3)c2cc1OC (stereo not drawn) [Example 319, N-{1-[5-(2-{[3-(dimethylamino)azetidin-1-yl]methyl}phenyl)thiophen-2-yl]ethyl}-6,7-dimethoxy-2-methylquinazolin-4-amine]	6.92	6.79
